{
  "source": "paper PMC5294416",
  "about": "“Novel peptides for deciphering structural and signalling functions of E-cadherin in mouse embryonic stem cells” (Scientific Reports, 2017)",
  "key": {"wtD3 mESCs [1]": {"system": "wtD3 mESCs", "test": "Loss of cell-cell contact, phase contrast microscopy", "format": "cell-based, mouse", "procedure": "(§1) Unless otherwise stated, mESC lines were grown on gelatinised tissue culture grade 6-well plates at 37 °C/5% CO2, as previously described. mESCs cells were treated with 10 μM peptide in mESC culture medium which was replenished every 24 h. Inhibition of specific pathways in mESCs was achieved by incubation with 10 μM LY294002 (PI3K inhibitor), PD9805 (MEK inhibitor) and SB431542 (TGFβ1 R inhibitor)."}, "[2]": {"molecular_target": "T1, recombinant mouse E-Cadherin Fc Chimera (Mus musculus, UniProt P09803)", "T1 construct": "purchased R&D Systems", "test": "Biacore SPR equilibrium binding analysis (affinity capture)", "procedure": "Biacore SPR analysis was used to measure the interaction between peptides and recombinant mouse E-Cadherin Fc Chimera (R&D Systems). Analytes were passed over an HTE chip with surface bound His-tagged Recombinant Mouse E-Cadherin Fc Chimera (R&D Systems). The kinetics of interaction, i.e. the rates of complex formation (ka) and dissociation (kd), were determined and Integrin α4β7 protein was used as a control. Analysis was performed by the Biomolecular Analysis Core Facility (The University of Manchester, UK) on a Proteon XPR-36 protein interaction array system (Bio-Rad) using a HTE chip for high capacity His-tagged protein capture (Bio-Rad). Equilibrium analysis runs were performed three times and an average KD was calculated. Running buffer: HBS/0.02%, Tween/2 mM, CaCl2/1 mM MgCl2."}, "[3]": {"system": "Akt phosphorylation in mESCs", "test": "Akt phosphorylation in treated mESCs", "format": "cell-based, mouse", "conditions": "data not shown", "procedure": "(§2) Cells were harvested using cell dissociation buffer, centrifuged and washed with PBS prior to lysis using Radioimmunoprecipitation (RIPA) buffer (Sigma) containing protease inhibitor cocktail tablets (1 tablet per 10 ml RIPA buffer) (Roche Applied Science) at a concentration of 2 × 10^7 cell/ml. Lysates were separated by SDS-PAGE and electrotransferred onto nitrocellulose membrane as previously described. The membrane was probed using the appropriate primary antibody with subsequent incubation with HRP-conjugated secondary antibody. The membrane was exposed to an autoradiographic film (Hyperfilm ECL, GE Healthcare, Amersham, UK) for the appropriate time period in an X-ray cassette before the film was manually developed in a dark room using Kodak GBX developer and fixer solutions (Sigma, Dorset, UK). Primary antibodies: anti-α-tubulin, 1:2000 dilution (T9026, Sigma, Dorset, UK); anti-AKT, 1:200 dilution (#9272, Cell Signalling Technology, MA, USA); anti-pAKT (Ser473), 1:200 (#4060S, Cell Signalling Technology, MA, USA); anti-STAT3, 1:200 dilution (SC-482, Santa Cruz Biotechnology Inc, TX, USA); anti-pSTAT3, 1:200 dilution (#9138S, Cell Signalling Technology, MA, USA)."}, "mESCs": {"system": "mESCs", "test": "Cell viability in monolayer culture", "format": "cell-based, mouse", "conditions": "data not shown"}, "[4]": {"system": "NANOG protein in wtD3 mESCs", "test": "Immunofluorescence microscopy analysis of NANOG protein expression", "format": "cell-based, mouse", "conditions": "96 h / 4 days where stated", "procedure": "Monolayer cultured mESCs were fixed in situ in 4% w/v PFA in PBS for 30 minutes at room temperature, washed twice with PBS and blocked with 1% goat serum in 0.1% w/v BSA, 0.1% Triton X-100 in PBS for 30 minutes. Cells were incubated in the appropriate primary antibody in goat blocking buffer for two hours at RT. Cells were washed three times in PBS and incubated in the appropriate Alexa fluor-488 or −546 conjugated secondary antibody at RT for 1 hour in the dark. Cells were washed three times with PBS, mounted in 4′6-diamidino-2-phenylindole (DAPI) (Vector Laboratories) and visualized using a Leica DM6000B fluorescence microscope (Leica Microsystems) and processed using Leica LAS X Core software (Leica Microsystems). Primary antibodies: anti-Nanog, 1:200 dilution (ab80892, Abcam Plc, Cambridge, UK); anti-Oct4, 1:200 dilution (ab19857, Abcam Plc, Cambridge, UK). […] Cells were visualized using a Leica DM6000B fluorescence microscope (Leica Microsystems) and processed using Leica LAS X Core software (Leica Microsystems).\n(§3) Images were imported into ImageJ and fluorescence intensity measured using the Analyse > Measure function on areas selected using the rectangular or oval selection icons."}, "[5]": {"system": "STAT3 phosphorylation in wtD3 mESCs", "test": "Western blot analysis of phosphorylated STAT3", "format": "cell-based, mouse", "procedure": "as §1, §2"}, "[6]": {"system": "OCT4 protein in wtD3 mESCs", "test": "Immunofluorescence microscopy analysis of OCT4 protein expression with pathway inhibitors", "format": "cell-based, mouse", "procedure": "as §1\nMonolayer cultured mESCs were fixed in situ in 4% w/v PFA in PBS for 30 minutes at room temperature, washed twice with PBS and blocked with 1% goat serum in 0.1% w/v BSA, 0.1% Triton X-100 in PBS for 30 minutes. Cells were incubated in the appropriate primary antibody in goat blocking buffer for two hours at RT. Cells were washed three times in PBS and incubated in the appropriate Alexa fluor-488 or −546 conjugated secondary antibody at RT for 1 hour in the dark. Cells were washed three times with PBS, mounted in 4′6-diamidino-2-phenylindole (DAPI) (Vector Laboratories) and visualized using a Leica DM6000B fluorescence microscope (Leica Microsystems) and processed using Leica LAS X Core software (Leica Microsystems). Primary antibodies: anti-Nanog, 1:200 dilution (ab80892, Abcam Plc, Cambridge, UK); anti-Oct4, 1:200 dilution (ab19857, Abcam Plc, Cambridge, UK). For immunofluorescence microscopy analysis of fluorescent-tagged peptides, cells were incubated in 500 μM peptide in cell culture medium for 15 minutes, washed twice in ice cold PBS and mounted with Vectorshield containing DAPI. Cells were visualized using a Leica DM6000B fluorescence microscope (Leica Microsystems) and processed using Leica LAS X Core software (Leica Microsystems).\nas §3"}, "pERK1/2 in wtD3 mESCs": {"system": "pERK1/2 in wtD3 mESCs", "test": "Western blot analysis of phosphorylated ERK1/2", "format": "cell-based, mouse"}, "[7]": {"system": "Nanog, Klf4, Tbx3, Esrrb, Nr0b1, Nr5a2 and Tet1 transcripts in wtD3 mESCs", "test": "qPCR analysis of pluripotency transcript expression", "format": "cell-based, mouse", "procedure": "as §1\nPrimers for qPCR were designed using the Roche Applied science Universal Probe Library software and BLAST screened for sequence specificity. Only primers producing a single dissociation peak were used. RNA was extracted from mESCs and cDNA at a concentration of 2 ng/μl was used for analysis in a MicroAmp Optical 96-well Reaction Plate (Applied Biosystems) using SYBR green Jumpstart Taq ReadyMix (Applied Biosystems). Primer sequences: 18srRNA Forward (F) […], Reverse (R) […]; ESRRB F-[…], R-[…]; KLF4 F-[…], R-ATGTCCGCCAGGTTGAAG; NANOG F-[…], R-[…]; NR0B1 F-[…], R-[…]; NR5A2 F-[…], R-[…]; TBX3 F-[…], R-[…]; TET1 F-[…], R-[…]."}, "MCF-7": {"system": "MCF-7", "conditions": "MCF-7 cell line; cited from earlier work", "text": "(§4) E-cadherin provides an attractive target to manipulate ESCs in culture since cell signalling mediated through this protein has significant effects on both ESC pluripotent states and survival. We have previously shown that abrogation of E-cadherin-mediated cellular aggregation allows culture of mESCs in shake flask bioreactors whilst retaining pluripotency, either through gene knockout or an inhibitory antibody DECMA-1[16]. However, utilisation of E-cadherin neutralising Abs for ESC culture is expensive and more cost-effective E-cadherin inhibitors are required before this technique becomes com ..."}, "wtD3 mESCs [8]": {"system": "wtD3 mESCs", "conditions": "mESC cell line; cited from earlier work", "text": "as §4"}, "[9]": {"system": "STAT3 phosphorylation in wtD3 mESCs", "conditions": "mESC; cited from earlier work", "text": "as §4"}, "[10]": {"conditions": "transcript, mESCs, Fig. 6a summary"}},
  "note": "“Also recorded” adds a separate entry of the source.",
  "data": [
    {"substance": "H-SWELYYPLRANL-NH2 [Epep, H-SWELYYPLRANL-NH2]", "values": [
      {"measurement": "Loss of cell-cell contact (10μM)?", "setting": "wtD3 mESCs [1]; mESCs, 10 μM, Fig. 6a summary", "result": "YES"},
      {"measurement": "Effect on cell-cell contact (in words)", "setting": "wtD3 mESCs [1]; wtD3 mESCs, 10 μM peptide, 24 h, phase contrast", "result": "loss of cell-cell contact after 24 h; also recorded: loss of cell-cell contact within 24 h"},
      {"measurement": "Cell-cell contact after removal of the inhibitor", "setting": "wtD3 mESCs [1]; wtD3 mESCs, 24 h post-removal of treatment", "result": "restoration of cell-cell contact; also recorded: reversible"},
      {"measurement": "Kd", "setting": "[2]; equilibrium analysis using affinity capture on HTE chip, peptide stock in water, average of three runs, running buffer HBS/0.02% Tween/2 mM CaCl2/1 mM MgCl2", "result": 3400, "unit": "nM"},
      {"measurement": "Kd", "setting": "[2]; peptide dissolved in 10%v/v DMSO/H2O, equilibrium analysis using affinity capture", "result": 1150, "unit": "nM"},
      {"measurement": "Akt phosphorylation", "setting": "[3]", "result": "no changes in Akt phosphorylation"},
      {"measurement": "cell viability in monolayer culture", "setting": "mESCs", "result": "no significant difference in cell viability"},
      {"measurement": "NANOG protein expression", "setting": "[4]", "result": "decreased NANOG protein expression"},
      {"measurement": "Loss of pStat3", "setting": "[5]; mESCs, Fig. 6a summary", "result": "YES"},
      {"measurement": "Effect on STAT3 phosphorylation (in words)", "setting": "[5]; wtD3 mESCs vs control treated cells, western blot", "result": "decreased STAT3 phosphorylation within 24 h; also recorded: significantly decreased phosphorylation of STAT3"},
      {"measurement": "OCT4 protein expression in the presence of SB431542", "setting": "[6]; peptide-treated wtD3 mESCs plus Activin/Nodal inhibitor SB431542, after 5 days", "result": "maintained expression of OCT4 protein"},
      {"measurement": "OCT4 protein expression in the presence of SU5402", "setting": "[6]; peptide-treated wtD3 mESCs plus FGFR1 inhibitor SU5402, after 5 days", "result": "maintained expression of OCT4 protein"},
      {"measurement": "pERK1/2 compared to untreated mESCs", "setting": "pERK1/2 in wtD3 mESCs", "result": "decreased pERK1/2"},
      {"measurement": "Transcripts restored to control levels after removal of inhibitor", "setting": "[7]; mESCs, 24 h post-removal", "result": "Nanog, Esrrb, Tbx3 and Tet1"},
      {"measurement": "Loss of ESRRB", "setting": "[7]; [10]", "result": "YES"},
      {"measurement": "Loss of Klf4", "setting": "[7]; [10]", "result": "YES"},
      {"measurement": "Loss of Nanog", "setting": "[7]; [10]", "result": "YES"},
      {"measurement": "Loss of Nr0b1", "setting": "[7]; [10]", "result": "YES"},
      {"measurement": "Loss of Nr5a2", "setting": "[7]; [10]", "result": "YES"},
      {"measurement": "Loss of TBX3", "setting": "[7]; [10]", "result": "YES"},
      {"measurement": "Transcripts with decreased expression compared to control (qPCR)", "setting": "[7]; wtD3 mESCs, 10 μM peptide, 24 h", "result": "Nanog, Klf4, Tbx3, Esrrb, Nr0b1, Nr5a2 and Tet1"},
      {"measurement": "Transcripts remaining significantly decreased after removal of inhibitor", "setting": "[7]; wtD3 mESCs, 24 h following removal", "result": "Klf4, Nr0b1 and Nr5a2"},
      {"measurement": "inhibition of E-cadherin mediated cell-cell contact", "setting": "MCF-7", "result": "inhibit E-cadherin mediated cell-cell contact"},
      {"measurement": "inhibition of E-cadherin mediated cell-cell contact", "setting": "wtD3 mESCs [8]", "result": "inhibit E-cadherin mediated cell-cell contact"},
      {"measurement": "phosphorylation of STAT3", "setting": "[9]", "result": "abrogate phosphorylation of STAT3"}
    ]}
  ]
}
